Data reported in patent US20220218852A1, “NOVEL RADIOLABELLED CXCR4-TARGETING COMPOUNDS FOR DIAGNOSIS AND THERAPY” (PROVINCIAL HEALTH SERVICES AUTHORITY, priority 2019, published 2022).
Like-named read-outs stand apart in the source and are kept apart here. Positions of bridges follow the written chain, without caps; N, C: chain ends. Non-standard residues stand in square brackets, D forms with d. Residues, ends and D or L forms follow the SMILES beside them. Groups on a side chain read outwards from the residue. *: point of attachment. DOTA = O=C(O)CN1CCN(CC(=O)O)CCN(CC(=O)*)CCN(CC(=O)O)CC1; 2Nal = N[C@@H](Cc1ccc2ccccc2c1)C(=O)O; Lys(iPr) = CC(C)NCCCC[C@H](N)C(=O)O

Legend:
[1] = Biodistribution in Daudi tumor-bearing mice; type: in vivo; conditions: male, NOD.Cg-Rag1^tm1MomII2rg^tm1Wjl/SzJ (NRG), mouse, iv, total radioactivity, Daudi xenograft bearing mice
Experimental: (§1) For Daudi, Z138, GRANTA519 and Jeko1 xenografts, male NOD.Cg-Rag1^tm1MomII2rg^tm1Wjl/SzJ (NRG) mice were subcutaneously inoculated on the left flank with 5×10^6 cells (100 μL; 1:1 ratio of PBS/Matrigel) and tumors were grown to a size of 200-500 mm^3. For PC-3 xenografts, male NOD.Cg-Rag1^tm1MomII2rg^tm1Wjl/SzJ (NRG) mice were subcutaneously inoculated on the left flank with 5×10^6 PC-3 cells (100 μL; 1:1 ratio of PBS/Matrigel) and tumors were grown to a size of 200-400 mm^3.
(§2) The mice were euthanized via CO2 inhalation while anesthetized with isoflurane. Tissues were harvested, washed in PBS, blotted dry, weighed, and measured on a Hidex AMG Automatic Gamma Counter.

[2] = tested on: Daudi Burkitt's lymphoma xenografts; assay: Biodistribution in Daudi tumor-bearing mice; type: in vivo; conditions: Daudi xenograft bearing mice
Experimental: as §1, §2

[3] = 1 h blocked (7.5 μg LY2510924 i.p. 15 min before tracer)

## CC(C)NCCCC[C@@H]1NC(=O)[C@H](Cc2ccc(O)cc2)NC(=O)[C@H](Cc2ccccc2)NC(=O)CC[C@H](C(=O)N[C@@H](CCCCNC(C)C)C(=O)N[C@@H](CCCCNC(=O)[C@@H](CCC(=O)O)NC(=O)[C@@H](CCC(=O)O)NC(=O)[C@@H](CCC(=O)O)NC(=O)CN2CCN(CC(=O)O)CCN(CC(=O)O)CCN(CC(=O)O)CC2)C(N)=O)NC(=O)CNC(=O)[C@H](Cc2ccc3ccccc3c2)NC(=O)[C@@H](CCCNC(=N)N)NC1=O [[^68Ga]Ga-BL20, metal not drawn] (FY[Lys(iPr)][dR][2Nal]G[dE][Lys(iPr)]K([dE-dE-dE-DOTA])-NH2; lactam N-7)
[1]; Daudi tumour, 1 h, read-out: Biodistribution Daudi (tumour)
  tissue uptake at 1 h: 9.07 %ID/g
[1]; Daudi tumour, 1 h blocked (7.5 μg LY2510924 i.p. 15 min before tracer), read-out: Biodistribution Daudi (tumour)
  tissue uptake at 1 h: 0.59 %ID/g
[1]; Daudi tumour, read-out: Biodistribution Daudi (tumour)
  tissue uptake at 2 h: 8.01 %ID/g
[1]; adrenals, 1 h, read-out: Biodistribution Adrenals
  tissue uptake at 1 h: 0.35 %ID/g
[1]; adrenals, 1 h blocked (7.5 μg LY2510924 i.p. 15 min before tracer), read-out: Biodistribution Adrenals
  tissue uptake at 1 h: 0.35 %ID/g
[1]; adrenals, read-out: Biodistribution Adrenals
  tissue uptake at 2 h: 0.27 %ID/g
[1]; blood, 1 h, read-out: Biodistribution Blood
  tissue uptake at 1 h: 0.42 %ID/g
[1]; blood, 1 h blocked (7.5 μg LY2510924 i.p. 15 min before tracer), read-out: Biodistribution Blood
  tissue uptake at 1 h: 0.65 %ID/g
[1]; blood, read-out: Biodistribution Blood
  tissue uptake at 2 h: 0.08 %ID/g
[1]; bone, 1 h, read-out: Biodistribution Bone
  tissue uptake at 1 h: 0.17 %ID/g
[1]; bone, 1 h blocked (7.5 μg LY2510924 i.p. 15 min before tracer), read-out: Biodistribution Bone
  tissue uptake at 1 h: 0.15 %ID/g
[1]; bone, read-out: Biodistribution Bone
  tissue uptake at 2 h: 0.05 %ID/g
[1]; brain, 1 h, read-out: Biodistribution Brain
  tissue uptake at 1 h: 0.01 %ID/g
[1]; brain, 1 h blocked (7.5 μg LY2510924 i.p. 15 min before tracer), read-out: Biodistribution Brain
  tissue uptake at 1 h: 0.02 %ID/g
[1]; brain, read-out: Biodistribution Brain
  tissue uptake at 2 h: 0.01 %ID/g
[1]; fat, 1 h, read-out: Biodistribution Fat
  tissue uptake at 1 h: 0.06 %ID/g
[1]; fat, 1 h blocked (7.5 μg LY2510924 i.p. 15 min before tracer), read-out: Biodistribution Fat
  tissue uptake at 1 h: 0.12 %ID/g
[1]; fat, read-out: Biodistribution Fat
  tissue uptake at 2 h: 0.01 %ID/g
[1]; heart, 1 h, read-out: Biodistribution Heart
  tissue uptake at 1 h: 0.15 %ID/g
[1]; heart, 1 h blocked (7.5 μg LY2510924 i.p. 15 min before tracer), read-out: Biodistribution Heart
  tissue uptake at 1 h: 0.22 %ID/g
[1]; heart, read-out: Biodistribution Heart
  tissue uptake at 2 h: 0.05 %ID/g
[1]; intestine, 1 h, read-out: Biodistribution Intestine
  tissue uptake at 1 h: 0.21 %ID/g
[1]; intestine, 1 h blocked (7.5 μg LY2510924 i.p. 15 min before tracer), read-out: Biodistribution Intestine
  tissue uptake at 1 h: 0.37 %ID/g
[1]; intestine, read-out: Biodistribution Intestine
  tissue uptake at 2 h: 0.25 %ID/g
[1]; kidney, 1 h, read-out: Biodistribution Kidney
  tissue uptake at 1 h: 3.58 %ID/g
[1]; kidney, 1 h blocked (7.5 μg LY2510924 i.p. 15 min before tracer), read-out: Biodistribution Kidney
  tissue uptake at 1 h: 5.92 %ID/g
[1]; kidney, read-out: Biodistribution Kidney
  tissue uptake at 2 h: 3.02 %ID/g
[1]; liver, 1 h, read-out: Biodistribution Liver
  tissue uptake at 1 h: 0.58 %ID/g
[1]; liver, 1 h blocked (7.5 μg LY2510924 i.p. 15 min before tracer), read-out: Biodistribution Liver
  tissue uptake at 1 h: 0.44 %ID/g
[1]; liver, read-out: Biodistribution Liver
  tissue uptake at 2 h: 0.51 %ID/g
[1]; lung, 1 h, read-out: Biodistribution Lung
  tissue uptake at 1 h: 0.51 %ID/g
[1]; lung, 1 h blocked (7.5 μg LY2510924 i.p. 15 min before tracer), read-out: Biodistribution Lung
  tissue uptake at 1 h: 0.71 %ID/g
[1]; lung, read-out: Biodistribution Lung
  tissue uptake at 2 h: 0.22 %ID/g
[1]; muscle, 1 h, read-out: Biodistribution Muscle
  tissue uptake at 1 h: 0.08 %ID/g
[1]; muscle, 1 h blocked (7.5 μg LY2510924 i.p. 15 min before tracer), read-out: Biodistribution Muscle
  tissue uptake at 1 h: 0.13 %ID/g
[1]; muscle, read-out: Biodistribution Muscle
  tissue uptake at 2 h: 0.02 %ID/g
[1]; pancreas, 1 h, read-out: Biodistribution Pancreas
  tissue uptake at 1 h: 0.11 %ID/g
[1]; pancreas, 1 h blocked (7.5 μg LY2510924 i.p. 15 min before tracer), read-out: Biodistribution Pancreas
  tissue uptake at 1 h: 0.16 %ID/g
[1]; pancreas, read-out: Biodistribution Pancreas
  tissue uptake at 2 h: 0.04 %ID/g
[1]; spleen, 1 h, read-out: Biodistribution Spleen
  tissue uptake at 1 h: 0.49 %ID/g
[1]; spleen, 1 h blocked (7.5 μg LY2510924 i.p. 15 min before tracer), read-out: Biodistribution Spleen
  tissue uptake at 1 h: 0.3 %ID/g
[1]; spleen, read-out: Biodistribution Spleen
  tissue uptake at 2 h: 0.21 %ID/g
[1]; stomach, 1 h, read-out: Biodistribution Stomach
  tissue uptake at 1 h: 0.05 %ID/g
[1]; stomach, 1 h blocked (7.5 μg LY2510924 i.p. 15 min before tracer), read-out: Biodistribution Stomach
  tissue uptake at 1 h: 0.24 %ID/g
[1]; stomach, read-out: Biodistribution Stomach
  tissue uptake at 2 h: 0.05 %ID/g
[1]; testes, 1 h, read-out: Biodistribution Testes
  tissue uptake at 1 h: 0.15 %ID/g
[1]; testes, 1 h blocked (7.5 μg LY2510924 i.p. 15 min before tracer), read-out: Biodistribution Testes
  tissue uptake at 1 h: 0.2 %ID/g
[1]; testes, read-out: Biodistribution Testes
  tissue uptake at 2 h: 0.05 %ID/g
[2]; 1 h
  Ratio Tumour:Blood: 22.78
  Ratio Tumour:Bone: 54.57
  Ratio Tumour:Liver: 15.68
  Ratio Tumour:Lung: 18.12
  Ratio Tumour:Muscle: 125.40
  Ratio Tumour:Spleen: 18.55
[2]; [3]
  Ratio Tumour:Blood: 0.90
  Ratio Tumour:Bone: 3.88
  Ratio Tumour:Liver: 1.34
  Ratio Tumour:Lung: 0.82
  Ratio Tumour:Muscle: 4.49
  Ratio Tumour:Spleen: 1.96
[2]; 2 h
  Ratio Tumour:Blood: 113.17
  Ratio Tumour:Bone: 189.39
  Ratio Tumour:Liver: 15.57
  Ratio Tumour:Lung: 37.40
  Ratio Tumour:Muscle: 346.93
  Ratio Tumour:Spleen: 41.58
